Structures can show the parent of a compound that is named as a salt. Where two headings read alike, the source gives them in different places.
What was measured:
[1] = system: cholinesterase in hemolyzed whole blood (hemolysate); test: Sigma Diagnostics Cholinesterase (PTC) kit, hemolysate of patient blood samples; format: biochemical, human; conditions: for Hemolysate ChE activity: no addition = 1.00, blood samples from 3 patients
From the text: (§1) HChE=(EChE×Hct*)+(PChE×(1--Hct*))
By doing this, the values are obtained directly.
The results are shown below in table 1.1.

[2] = target: butyrylcholinesterase (pseudocholinesterase) in serum (Homo sapiens, UniProt P06276); conditions: for Serum ChE activity: no addition = 1.00, blood samples from 3 patients
From the text: SIGMA DIAGNOSTICS® CHOLINESTERASE (PTC) kit, available from Sigma Diagnostics, can be used for determining the activity and selectivity of cholinesterase inhibitors. In the following, it is illustrated how the kit is used for the determination of the activity and selectivity of Nivalin (Galanthamine hydrobromide).
Reactions involved in the cholinesterase assay are as follows: [drawing 3]
Thiocholine+5,5'-Dithiobis-2-Nitrobenzoic Acid→5-Thio-2-NitrobenzoicAcid
5-Thio-2-Nitrobenzoic Acid is assessed by measuring the absorbance at 405 nm. The rate of change in absorbance at 405 nm is directly proportional to cholinesterase activity.
The activity of erythrocyte cholinesterase may be calculated on the basis of the measurement of butyrylcholinesterase (pseudocholinesterase) in serum and cholinesterase in hemolyzed whole blood (hemolysate), both measured simultaneously by the method described above, and evaluated according to the hematocrit value according to the formula
as §1
In the above formulae, EChE is erythrocyte cholinesterase activity, PChE is plasma cholinesterase activity, HChE is hemolysate cholinesterase activity, and Hct is hematocrit value of the sample.
Another way of assessing the cholinesterase activity is to measure the plasma cholinesterase and the cholinesterase in purified hemolyzed erythrocytes. By doing this, the values are obtained directly.
Blood samples from 3 patients were tested with the Sigma test. The tests were carried out with samples where no Nivalin was added and with samples where 1.25 μg/ml Nivalin and 2.5 μg/ml were added in vitro.

[3] = cited from earlier work
[4] = system: acetylcholinesterase as opposed to butyrylcholinesterase; conditions: in vitro method by Thomsen et al.; hydrobromide; cited from earlier work

Chain of butyrylcholinesterase (pseudocholinesterase) in serum (P06276 29-602): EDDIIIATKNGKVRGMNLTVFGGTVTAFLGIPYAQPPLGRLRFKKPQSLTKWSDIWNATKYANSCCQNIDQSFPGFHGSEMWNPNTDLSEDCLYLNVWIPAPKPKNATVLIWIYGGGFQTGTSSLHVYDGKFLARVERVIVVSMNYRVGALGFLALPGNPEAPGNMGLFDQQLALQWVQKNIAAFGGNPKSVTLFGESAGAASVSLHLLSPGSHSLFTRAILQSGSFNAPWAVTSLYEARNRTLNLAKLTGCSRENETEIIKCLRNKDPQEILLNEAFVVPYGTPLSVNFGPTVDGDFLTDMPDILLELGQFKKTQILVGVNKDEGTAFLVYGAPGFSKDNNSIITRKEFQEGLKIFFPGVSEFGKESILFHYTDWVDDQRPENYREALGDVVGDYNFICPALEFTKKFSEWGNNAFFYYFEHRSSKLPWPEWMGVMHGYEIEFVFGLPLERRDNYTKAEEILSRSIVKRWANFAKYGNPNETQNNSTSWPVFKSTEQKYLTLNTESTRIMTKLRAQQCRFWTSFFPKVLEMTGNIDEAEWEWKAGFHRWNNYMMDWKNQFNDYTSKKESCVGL

COc1ccc2c3c1O[C@H]1C[C@@H](O)C=C[C@@]31CCN(C)C2 [galanthamine hydrobromide, Galanthamine hydrobromide]
Hemolysate ChE activity ([1]; 1.25 μg/ml added in vitro): 0.96
Hemolysate ChE activity ([1]; 2.50 μg/ml added in vitro): 0.86
change of hemolysate cholinesterase activity with increased concentration ([1]; in words): significant reduction
Serum ChE activity ([2]; 1.25 μg/ml added in vitro): 0.98
Serum ChE activity ([2]; 2.50 μg/ml added in vitro): 0.97
change of serum cholinesterase activity on addition ([2]; in words): do not show any statistically significant change
elimination half life ([3]; in vivo): over four
absorption from the gut ([3]; in words): absorbed rapidly from the gut
passage of the blood brain barrier ([3]; in words): transverses the blood brain barrier easily
renal elimination ([3]; in words): practically complete renal elimination
selectivity for acetylcholinesterase as opposed to butyrylcholinesterase [4]: 50 fold
